Patent publication US20120039917A1, “IMMUNO[…]” (priority 2008, published 2012)

Assays:
proliferating T cells = assay: PMET activity measured by WST-1/PMS reduction; type: cell-based; details: Homo sapiens, T-cell, read-out: IC50 inhibition of PMET (WST-1/PMS reduction)
Procedure: (§1) Immediately prior to experiments, frozen PBMC were thawed, centrifuged at 1400 rpm in a Multifuge 3 s (Heraeus) for 4 min, washed in RPMI+10% FCS and resuspended in T cell medium (RPMI+10% FCS+10 μM 2-mercaptoethanol (Sigma), 1×glutamine, 1×non-essential amino acids (Gibco)) at 2×10^6 cells/mL. Cells (2×10^5) were activated by adding 10 μg/mL anti-CD3 and 5 μg/mL anti-CD28 and 20 U/mL IL-2 per well. Cells were incubated at 37° C. in a humidified incubator maintained at 5% CO2 for 4 to 5 days until large numbers of large spherical aggregates or “bursts” of lymphocytes were observed. Activated proliferating T cells were pooled from the wells for further experiments. Resting T cells were incubated for the same length of time but in the presence of 20 U/mL IL-2 only.
(§2) WST-1/PMS reduction rates were measured in a microplate format as described previously (Berridge and Tan, 1998). […] WST-1 reduction was measured in real time at 450 nm over 30-60 min in a BMG FLUOstar OPTIMA plate reader.
(§3) The effect of PXD on PMET (FIG. 1A) was investigated by measuring reduction of the cell impermeable tetrazolium dye, WST-1, in the presence of its obligate intermediate electron acceptor, 1 mPMS (WST-1/PMS reduction). […] The effect of PXD on proliferation (FIG. 1B) was determined by measuring intracellular reduction of the tetrazolium salt, MTT.

resting T cells = assay: PMET activity measured by WST-1/PMS reduction; type: cell-based; details: Homo sapiens, T-cell, read-out: IC50 inhibition of PMET (WST-1/PMS reduction)
Procedure: as §1, §2, §3

[1] = tested on: late stage solid cancer patients; details: intravenous infusion, phase I; cited from earlier work
[2] = tested on: resting responder T cells; assay: Third party MLR of resting responder T cells sorted after PXD exposure; type: cell-based, human; details: 10 μM PXD added day 5 of first MLR; sorted day 8, restimulated without PXD
Procedure: Mixed lymphocyte reactions were established using unrelated, HLA-mismatched healthy donor blood samples as donor/recipient pairs. Stimulator PBMC were γ-irradiated with 30 Gy as described previously (Zenhausen et al., 2007). Responder PBMC were washed twice in PBS, 5,6-carboxy-succinimidyl-fluorescein-ester (CSFE)-labelled (1.25 μM, Sigma) at room temperature for 5 minutes, and washed twice in PBS/10% FCS. Two hundred thousand stimulator and responder cells were added per well at a 1:1 ratio in a 96 U-well plate in T cell medium. Stimulator and responder cells were also plated alone, and all cells were cultured in a 5% CO2, 37° C. humidified incubator. Viability, CFSE fluorescence and cell surface antigen expression were determined by flow cytometry. Cells were washed twice in FACS buffer (PBS, 2% FCS), and resuspended in 50 μL/5×10^5 cells and analysed on a Becton Dickinson LSRII FACS analyser using FlowJo (TreeStar) software.
The experiment described above was expanded by determining the effect of PXD exposure on responder T cells that had previously been exposed to, but not activated in a MLR. Two consecutive sets of MLRs were set up, mixing responder T cells and γ-irradiated stimulator cells on day 0, adding 10 μM PXD or 0.1% DMSO on day 5, and analysing proliferation and viability of responder T cells on day 8. […]

AML-derived HL60 = assay: Sensitivity of cell types to PXD, viability by AV/PI staining; type: cell-based; details: Homo sapiens, HL-60; HL60, 10 μM PXD for 24 h; read-out: [% viable blasts after PXD exposure]/[% viable blasts after 0.1% DMSO exposure]
Procedure: (§4) FIG. 6. Sensitivity of different cell types to PXD. Different cell types were incubated with 10 μM PXD for 24 h and viability was determined by AV/PI staining and reported as [% viable blasts after PXD exposure]/[% viable blasts after 0.1% DMSO exposure]. Percentage values are as follows: AML-derived HL60: 16±5 and HL60p°: 54±6, ALL-derived MOLT-4: 44±4, MM-derived U226: 59±6 and RPMI 8226: 12±4, primary AML blasts: 64±5, primary ALL blasts: 23±4, normal BM: 89±5, proliferating T cells: 69±4, resting T cells: 98±6. Results from cell lines are presented as the average±SEM of at least 3 separate experiments, results from bone marrow samples are presented as the average±SD of single experiments performed in duplicate.
(§5) Cell lines were grown in RPMI-1640 medium (GIBCO-BRL, Grand Island, N.Y.) supplemented with 5% (v/v) fetal calf serum, 2 mM […], 25 μg/mL penicillin, 25 μg/mL streptomycin, 50 μg/mL uridine and 1 mM pyruvate to densities of 1-2×10^6 cells/mL (exponential stage), at 37° C. in a humidified incubator maintained at 5% CO2.
(§6) Cells were centrifuged at 1400 rpm in a Multifuge 3 s (Heraeus) for 4 min at room temperature, washed in phosphate buffered saline solution, pH 7.3 (PBS) and resuspended in Annexin V binding buffer. Small aliquots (0.5-1×10^6 cells) were transferred to 1.5 mL tubes and spun at 1400 rpm in a Multifuge 3 s (Heraeus) for 4 min. Most supernatant was removed and 5 μL PI and 5 μL FITC-labelled AV was added to the wet pellets which were vortexed. After 30 min in the dark on ice, 500 μl of AV binding buffer was added, the cells were centrifuged for 2 min at 1400 rpm, washed once with AV binding buffer and resuspended in 300 μL of AV binding buffer in FACS tubes. Staining was analyzed by flow cytometry using a Becton Dickinson Canto II FACS analyser using FlowJo (TreeStar) software.

ALL-derived MOLT-4 = assay: as above; type: cell-based; details: Homo sapiens; MOLT-4, 10 μM PXD for 24 h; read-out: [% viable blasts after PXD exposure]/[% viable blasts after 0.1% DMSO exposure]
Procedure: as §4, §5, §6

MM-derived U226 = assay: as above; type: cell-based; details: Homo sapiens; U226, 10 μM PXD for 24 h; read-out: [% viable blasts after PXD exposure]/[% viable blasts after 0.1% DMSO exposure]
Procedure: as §4, §5, §6

HL60p° = assay: as above; type: cell-based; details: Homo sapiens, 10 μM PXD for 24 h, read-out: [% viable blasts after PXD exposure]/[% viable blasts after 0.1% DMSO exposure]
Procedure: as §4, §5, §6

In the case of `Oc1ccc(C2=Cc3ccc(O)cc3OC2)cc1` [PXD, Isoflav-3-en-4′,7-diol], the IC50 (proliferating T cells) is given as 46 µM, the IC50 (resting T cells) is given as over 200 µM and the “stabilization of disease after treatment, some patients” value [1] is given as “up to 6 months”. The “well tolerated dose with minor side effects” value [1] was at most 30 mg/kg, the “viability and functionality of non-proliferating T cells” value [2] was “affects neither the viability nor the functionality” and the viability at 10 µM (AML-derived HL60) was 16 ± 5%. The viability at 10 µM (ALL-derived MOLT-4) was 44 ± 4%, the viability at 10 µM (MM-derived U226) was 59 ± 6% and the viability at 10 µM (HL60p°) was 54 ± 6%.
